These results are taken from article PMC3857288, “Characterization of Amylolysin, a Novel Lantibiotic from Bacillus amyloliquefaciens GA1” (PLoS ONE, 2013).

Where two headings read alike, the source gives them in different places. Some results are limits rather than exact numbers.

Series [1] has as its system His-tag PBP1bγ from E. coli. The series can be described thus: Inhibition of the transglycosylation (glycosyl transferase) reaction, TLC of [14C] lipid II. It counts as biochemical. As to conditions: [14C] lipid II 2.5 µM, amylolysin 0.2 µM, PBP1bγ 15 nM, 25 mM Tris-HCl pH 7.5, 0.5 % decyl PEG, 10 mM MgCl2, 12% 1-octanol, 25 % DMSO, 1 hour, 30 °C. The protocol: (§1) Radiolabelled UDP-MurNac-pentapeptide, thereafter [^14C] lipid II, was prepared in vitro using E. coli K12 purified membrane from UDP-GlcNac and UDP-MurNAc-L-Ala-D-Glu-meso-DAP-D-[^14C]Ala-D-[^14C]Ala and subsequently purified as previously described. Inhibition of glycosyl transferase reaction was performed as described elsewhere with some modifications. Briefly, [^14C] lipid II (2.5µM; 0.125µCi nmol^-1), amylolysin (0.2 µM), His-tag PBP1bγ from E. coli (15 nM) were incubated in 25mM Tris-HCl (pH7,5), 0,5 % decyl PEG, 10 mM MgCl2, 12% 1-octanol, 25 % DMSO for 1 hour at 30 °C. The reaction products were separated by thin layer chromatography (TLC) on silica plate (SilG, […], Macherey-Nagel, Duren, Germany) using a mixture of methanol/chloroform/ammoniac/water (88/48/10/1, v/v/v/v) as mobile phase. For interaction experiment, [^14C] lipid II (2.5 µM; 0.125µCinmol^-1) and amylolysin (0.2 µM) were incubated in DMSO/1-octanol mixture (60/40 v/v) for 1 hour at room temperature before being subjected to TCL using a butanol/acetic acid/pyridine/water mixture (15/3/12/10, v/v/v/v) as mobile phase. The radioactive compounds were detected and analyzed with a Molecular Imager FX system (Biorad Laboratories).

For series [2], the system named is L. monocytogenes (three clinical or food isolates). The series is described as follows: MIC, microdilution (CLSI), summary for three isolates. The class given is cell-based, Listeria monocytogenes. Particulars: summary value of the text for the three L. monocytogenes isolates tested; BH medium, 37 °C, 24 h, triplicate. The protocol: (§2) Minimal inhibitory concentration (MIC) was determined for an array of bacterial and yeast strains by a microdilution method following the Clinical and Laboratory Standard Institute (CLSI) recommended procedure. Briefly, the different indicator strains were aerobically grown in 24-wells culture plates in the presence of purified amylolysin at concentration ranging from 0.1 to 2.8 µM in the appropriate medium and temperature conditions as stipulated in table 1. Each well was seeded at an OD600 of 0.1. After 24 h of incubation, cell growth was estimated based on OD600 measurements. The MIC values were defined as the lowest amylolysin concentration that is able to inhibit cell growth. Each experiment was performed in triplicate.

Series [3] is described as follows: Direct interaction with [14C] lipid II, TLC migration. It counts as binding. Particulars: [14C] lipid II 2.5 µM, amylolysin 0.2 µM, DMSO/1-octanol 60/40 v/v, 1 hour, room temperature, Molecular Imager FX. On the procedure: as §1
Another series concerns meat proteases. As to conditions: cited from earlier work. The text has this:
(§3) The majority of the bacteriocins described to date are from lactic bacteria with nisin, used commercially in many countries as preservative in food products, being the best characterized compound. […] In regards to their high level of protease production, Bacillus sp. has been considered as interesting alternative source for antimicrobial peptides with increased protease tolerance. In our laboratory, B. amyloliquefaciens ...

Series [4] has as its system Listeria monocytogenes LMG 21263. The series can be described thus: MIC, microdilution (CLSI). The class given is cell-based. Particulars: BH medium, 37 °C, 24-well plates, seeded at OD600 0.1, 24 h, amylolysin 0.1-2.8 µM, OD600 read-out, triplicate. On the procedure: as §2
Series [5] concerns Listeria innocua ATCC33090. The series can be described thus: MIC, microdilution (CLSI). As to conditions: BH medium, 37 °C, 24-well plates, seeded at OD600 0.1, 24 h, amylolysin 0.1-2.8 µM, OD600 read-out, triplicate. The class given is cell-based. On the procedure:
as §2

The test system of series [6] is Staphylococcus epidermis ATCC 1228. The series is described as follows: MIC, microdilution (CLSI). It counts as cell-based. Particulars: BH medium, 37 °C, 24-well plates, seeded at OD600 0.1, 24 h, amylolysin 0.1-2.8 µM, OD600 read-out, triplicate. The protocol:
as §2
A general note: Broth dilution looks for growth in wells or tubes with falling amounts of substance.

A further series relates to Bacillus cereus RFB125. The series is described as follows: MIC, microdilution (CLSI). The class given is cell-based. Particulars: clinical isolate; LB medium, 37 °C, 24-well plates, seeded at OD600 0.1, 24 h, amylolysin 0.1-2.8 µM, OD600 read-out, triplicate. The protocol: as §2
The test system of series [7] is Bacillus megaterium RFB124. The series can be described thus: MIC, microdilution (CLSI). It counts as cell-based. Particulars: LB medium, 37 °C, 24-well plates, seeded at OD600 0.1, 24 h, amylolysin 0.1-2.8 µM, OD600 read-out, triplicate. On the procedure:
as §2

In series [8] the test system is Staphylococcus aureus RFB127. The series is described as follows: MIC, microdilution (CLSI). Particulars: lab stock; BH medium, 37 °C, 24-well plates, seeded at OD600 0.1, 24 h, amylolysin 0.1-2.8 µM, OD600 read-out, triplicate. It counts as cell-based. The protocol: as §2
Series [9] deals with Lactobacillus plantarum RFB138. The series can be described thus: MIC, microdilution (CLSI). The class given is cell-based. Particulars: lab stock; MRS medium, 27 °C, 24-well plates, seeded at OD600 0.1, 24 h, amylolysin 0.1-2.8 µM, OD600 read-out, triplicate. The protocol:
as §2

Series [10] concerns Staphylococcus aureus ATCC 25923. The series can be described thus: MIC, microdilution (CLSI). Particulars: BH medium, 37 °C, 24-well plates, seeded at OD600 0.1, 24 h, amylolysin 0.1-2.8 µM, OD600 read-out, triplicate. It counts as cell-based. On the procedure: as §2
For series [11], the system named is Listeria monocytogenes LMG 23905. The series can be described thus: MIC, microdilution (CLSI). It counts as cell-based. Particulars: BH medium, 37 °C, 24-well plates, seeded at OD600 0.1, 24 h, amylolysin 0.1-2.8 µM, OD600 read-out, triplicate. The protocol: as §2
The subject of series [12] is Listeria monocytogenes LM2234. The series is described as follows: MIC, microdilution (CLSI). It counts as cell-based. As to conditions: clinical isolate; BH medium, 37 °C, 24-well plates, seeded at OD600 0.1, 24 h, amylolysin 0.1-2.8 µM, OD600 read-out, triplicate. The protocol:
as §2

Series [13] relates to Enterococcus faecalis RFB129. The series is described as follows: MIC, microdilution (CLSI). It counts as cell-based. As to conditions: clinical isolate; BH medium, 37 °C, 24-well plates, seeded at OD600 0.1, 24 h, amylolysin 0.1-2.8 µM, OD600 read-out, triplicate. On the procedure:
as §2

The subject of series [14] is Bacillus subtilis ATCC 6633. The series is described as follows: MIC, microdilution (CLSI). It counts as cell-based. Particulars: LB medium, 37 °C, 24-well plates, seeded at OD600 0.1, 24 h, amylolysin 0.1-2.8 µM, OD600 read-out, triplicate. On the procedure: as §2
Series [15] deals with Enterococcus faecium RFB128. The series can be described thus: MIC, microdilution (CLSI). As to conditions: lab stock; BH medium, 37 °C, 24-well plates, seeded at OD600 0.1, 24 h, amylolysin 0.1-2.8 µM, OD600 read-out, triplicate. It counts as cell-based. The protocol: as §2
In the next series the test system is Listeria innocua RFB159. The series can be described thus: MIC, microdilution (CLSI). The class given is cell-based. Particulars: clinical isolate; BH medium, 37 °C, 24-well plates, seeded at OD600 0.1, 24 h, amylolysin 0.1-2.8 µM, OD600 read-out, triplicate. The protocol: as §2
Another series relates to Weissella sp RFB139. The series can be described thus: MIC, microdilution (CLSI). The class given is cell-based. As to conditions: lab stock; MRS medium, 27 °C, 24-well plates, seeded at OD600 0.1, 24 h, amylolysin 0.1-2.8 µM, OD600 read-out, triplicate. On the procedure: as §2
The subject of the next series is Listeria ivanovii RFB160. The series can be described thus: MIC, microdilution (CLSI). Particulars: BH medium, 37 °C, 24-well plates, seeded at OD600 0.1, 24 h, amylolysin 0.1-2.8 µM, OD600 read-out, triplicate. The class given is cell-based. The protocol:
as §2

For series [16], the system named is Enterococcus faecalis ATCC 29212. The series is described as follows: MIC, microdilution (CLSI). It counts as cell-based. Particulars: BH medium, 37 °C, 24-well plates, seeded at OD600 0.1, 24 h, amylolysin 0.1-2.8 µM, OD600 read-out, triplicate. On the procedure:
as §2

The test system of series [17] is Streptococcus agalactiae RFB141. The series can be described thus: MIC, microdilution (CLSI). It counts as cell-based. Particulars: clinical isolate; BH medium, 37 °C, 24-well plates, seeded at OD600 0.1, 24 h, amylolysin 0.1-2.8 µM, OD600 read-out, triplicate. The protocol: as §2
Series [18] concerns Micrococcus luteus ATCC 9341. The series can be described thus: MIC, microdilution (CLSI). It counts as cell-based. As to conditions: BH medium, 37 °C, 24-well plates, seeded at OD600 0.1, 24 h, amylolysin 0.1-2.8 µM, OD600 read-out, triplicate. On the procedure: as §2
The test system of series [19] is Staphylococcus aureus ATCC 43300 (methicillin resistant). The series can be described thus: MIC, microdilution (CLSI). The class given is cell-based. Particulars: methicillin resistant strain; BH medium, 37 °C, 24-well plates, seeded at OD600 0.1, 24 h, amylolysin 0.1-2.8 µM, OD600 read-out, triplicate. The protocol:
as §2

Series [20] is classed as physicochemical. Particulars: agar diffusion, M. luteus ATCC 9341. The protocol: To evaluate sensitivity to proteases, purified amylolysin samples were quantified by RP-HPLC after 24h of incubation at 37°C with proteinase K and pronase (10 µg/ml, Sigma-Aldrich). Heat stability was evaluated after incubation for 60 min at various temperatures (25, 55, 65, 75 and 100 °C) whereas pH sensitivity was evaluated after a 1h-incubation in 200 mM HCl/KCl buffer (pH 2-3), acetate buffer (pH 4-6) and Tris buffer (pH 7-9). After those treatments, the remaining amylolysin activity was determined using the agar diffusion assays as described elsewhere, using Micrococcus luteus ATCC 9341 as an indicator strain.

The conditions of series [21]: above pH 6; cited from earlier work.
Text: as §3

Take amylolysin: the “inhibition of the transglycosylation reaction (lipid II polymerisation)” value in [1] was “Inhibition of the transglycosylation reaction”. Further, the MIC (as a rule, the smallest concentration in the dilution series that meets the test's criterion for growth inhibition) was roughly 0.5 µM in series [2]; 0.5 µM in series [4]; 0.7 µM in [5]; 2.8 µM in [6]; 0.2 µM with Bacillus cereus RFB125; 0.4 µM in [7]. The MIC in [8] is 1.4 µM; in [9], greater than 2.8 µM; in series [10] it was 2.8 µM; in series [11] it was 0.4 µM; in series [12], 0.4 µM; in series [13] it was 0.7 µM. Also, the MIC is 1.4 µM in [14]; 0.1 µM in series [15]; 0.7 µM with Listeria innocua RFB159; 2.8 µM in the series on Weissella sp RFB139; 0.8 µM in the series with Listeria ivanovii RFB160; 1.4 µM in series [16]. Moreover, the values for the MIC in series [17], in series [18] and in series [19] were 2.8 µM, 0.7 µM and 0.4 µM, respectively. Also, the “direct amylolysin-lipid II interaction (delay of migration of the complex on TLC)” value in series [3] is reported as “direct interaction between the two partners”. Also, in the series with meat proteases, the “sensitivity to meat proteases” value was “less sensitive to meat proteases than nisin”. Besides, the “reduction of biological activity” value in series [20] (100 °C for 1 hour) came to 7%. The antimicrobial activity reduction in [20] (acidic condition, pH 2, 1 h) was found to be 11%; in series [20] (alkaline condition, pH 9, 1 h), 7%.
nisin: in series [21], the solubility entry was “low solubility above pH 6”.
